Values of other authors, collected in patent US6113907A, “Pharmaceutical grade St. John's Wort” (priority 1997, dated 2000).

Conditions: depressed outpatients; cited from earlier work

SMILES: CCCC/N=C(/c1cc(Cl)ccc1O)c1ccccc1Cl [fengabine]
- antidepressant effects: antidepressant effects
